Source: US9747412B2, “Method for identifying activation of transferases” (HVIVO SERVICES LIMITED, priority 2010, dated 2017)

Tested on: epithelial cell line MCF10A
Assay: Global Kinase Activity Profiling (GKAP) of lysates of cells treated with EGF and kinase inhibitors
Assay type: cell-based, human
Details: for Decrease in the number of EGF-dependent kinase activities detected: MCF10A cells pre-treated 1 h with inhibitor (5 μM LY294002 or 10 μM U0126) before 100 ng/ml EGF for 10 min

Row | Compound | Decrease in the number of EGF-dependent kinase activities detected | Number of kinase reactions that increased as a function of treatment (treatment with EGF (summary statement))
1 | O=c1cc(N2CCOCC2)oc2c(-c3ccccc3)cccc12 [LY92004] | about 30% | 
2 | N#CC(=C(/N)Sc1ccccc1N)/C(C#N)=C(\N)Sc1ccccc1N [U0126] | about 30% | 
3 | EGF: recombinant human EGF (Peprotech AF-100-15), growth factor activating kinase pathways downstream of its receptor (NSDSECPLSHDGYCLHDGVCMYIEALDKYACNCVVGYIGERCQYRDLKWWELR; UniProt P01133 971-1023, looked up) |  | > 300
